{
  "source": "paper PMC9747124",
  "about": "(Clinical and Translational Science, 2022)",
  "key": {"[1]": {"assay": "Population PK model of evobrutinib", "assay_type": "in vivo, human", "settings": "for Increase of bioavailability with food compared with when fasted: population PK model covariate effect"}, "patients with RMS [2]": {"system": "patients with RMS", "assay_type": "in vivo, human"}, "[3]": {"settings": "data not shown for high-fat or moderate-fat meal; internal report; cited from earlier work"}, "patients with RMS [4]": {"system": "patients with RMS", "settings": "cited from earlier work; for Annualized relapse rate (ARR): 75 mg b.i.d."}, "patients with RMS [5]": {"system": "patients with RMS", "settings": "75 mg q.d. while fasted; over 24 weeks, maintained through week 48; cited from earlier work"}, "[6]": {"settings": "between-participant variability, final PK model"}},
  "note": "Where two headings read alike, the source gives them in different places.",
  "data": [
    {"smiles": "C=CC(=O)N1CCC(CNc2ncnc(N)c2-c2ccc(Oc3ccccc3)cc2)CC1", "note": "[evobrutinib, Evobrutinib]", "values": [
      {"measurement": "Patients exceeding AUC0-24,SS > 400 ng/ml h", "setting": "[1]; 75 mg b.i.d. treatment arm in the phase II study", "result": "all patients"},
      {"measurement": "ω^2 ALAG, Estimate (RSE %)", "setting": "[1]; [6]", "result": "0.317 (83.3)"},
      {"measurement": "ω^2 CL/F, Estimate (RSE %)", "setting": "[1]; [6]", "result": "0.257 (18.1)"},
      {"measurement": "ω^2 D1 fasted, Estimate (RSE %)", "setting": "[1]; [6]", "result": "0.784 (38.3)"},
      {"measurement": "ω^2 D1 fed, Estimate (RSE %)", "setting": "[1]; [6]", "result": "0.784 (38.3)"},
      {"measurement": "ω^2 Q/F, Estimate (RSE %)", "setting": "[1]; [6]", "result": "1.25 (18.2)"},
      {"measurement": "ω^2 V2/F, Estimate (RSE %)", "setting": "[1]; [6]", "result": "0.566 (32.9)"},
      {"measurement": "ω^2 V3/F, Estimate (RSE %)", "setting": "[1]; [6]", "result": "1.82 (15.2)"},
      {"measurement": "Cov CL/F + ALAG, Estimate (RSE %)", "setting": "[1]; covariance, final PK model", "result": "0.0572 (120)"},
      {"measurement": "Cov Q/F + V3/F, Estimate (RSE %)", "setting": "[1]; covariance, final PK model", "result": "1.09 (17.3)"},
      {"measurement": "Residual variability: Additive error", "setting": "[1]; final PK model", "result": 0.272, "unit": "ng/mL"},
      {"measurement": "Residual variability: Proportional error", "setting": "[1]; final PK model", "result": 0.509},
      {"measurement": "ALAG (lag time)", "setting": "[1]; final PK model, week 48", "result": 0.197, "unit": "h"},
      {"measurement": "K a (absorption rate constant)", "setting": "[1]; final PK model, week 48", "result": 0.793, "unit": "h⁻¹"},
      {"measurement": "V3/F (apparent volume of distribution of the peripheral compartment)", "setting": "[1]; final PK model, week 48", "result": 385, "unit": "L"},
      {"measurement": "CL/F (apparent clearance)", "setting": "[1]; final PK model, week 48, value for healthy participants", "result": 269, "unit": "L/h"},
      {"measurement": "Vd/F", "setting": "[1]; human, in vivo", "result": 50.8, "unit": "L"},
      {"measurement": "AUC(0-t)", "setting": "[1]; human, in vivo, 75 mg", "result": 835, "unit": "ng·h/mL"},
      {"measurement": "Cmax", "setting": "[1]; human, in vivo, 75 mg", "result": 168, "unit": "ng/mL"},
      {"measurement": "Increase of bioavailability with food compared with when fasted", "setting": "[1]", "result": "about 50%"},
      {"measurement": "Increase of bioavailability with food compared with when fasted", "setting": "[1]; listed as Evobrutinib", "result": 49, "unit": "%"},
      {"measurement": "exp(B1), level of ARR for high values of the AUC", "setting": "patients with RMS [2]; ARR versus exposure model estimate", "result": 0.11},
      {"measurement": "Mean ARR", "setting": "patients with RMS [2]; highest three exposure quintiles (starting at an AUC of 356 ng/ml h)", "result": "≤ 0.14"},
      {"measurement": "Increase of bioavailability by dosing with food", "setting": "[3]", "result": "about 50%"},
      {"measurement": "Clinical efficacy on any end points compared with placebo", "setting": "patients with RMS [4]; 25 mg q.d.", "result": "did not show clinical efficacy"},
      {"measurement": "Annualized relapse rate (ARR)", "setting": "patients with RMS [4]; 48-week double-blind period", "result": 0.11},
      {"measurement": "Annualized relapse rate (ARR)", "setting": "patients with RMS [4]; 108-week period (48-week double-blind plus 60-week open-label extension)", "result": 0.12},
      {"measurement": "Total cumulative number of T1 Gd+ lesions compared with placebo", "setting": "patients with RMS [5]", "result": "reduction"}
    ]}
  ]
}
